Source: BindingDB's records for doi:10.1021/acsmedchemlett.3c00236 (Smith, Gambrell & Russell, 2023)

Test: Inhibition of NLRP3 in human THP-1 cells assessed as reduction in pyroptosis preincubated for 3 hrs followed by nigericin addition and measured after 1 hr by resazurin dye based microplate reader analysis

Q: Which IC50 does the source give for `CCN1CCC[C@H](Nc2nc3nc(-c4c(C)cc(Cl)c(F)c4O)ccc3o2)C1` here?
A: The IC50 was 0.6 nM.
